Assay results taken from ChEMBL document CHEMBL1141676, “A three-dimensional pharmacophore model for dipeptidyl peptidase IV inhibitors” (Eur J Med Chem, 2008).
pIC50: −log10 of the molar value.

Molecular target: Dipeptidyl peptidase 4 (Homo sapiens, UniProt P27487)
Sequence (P27487 whole entry): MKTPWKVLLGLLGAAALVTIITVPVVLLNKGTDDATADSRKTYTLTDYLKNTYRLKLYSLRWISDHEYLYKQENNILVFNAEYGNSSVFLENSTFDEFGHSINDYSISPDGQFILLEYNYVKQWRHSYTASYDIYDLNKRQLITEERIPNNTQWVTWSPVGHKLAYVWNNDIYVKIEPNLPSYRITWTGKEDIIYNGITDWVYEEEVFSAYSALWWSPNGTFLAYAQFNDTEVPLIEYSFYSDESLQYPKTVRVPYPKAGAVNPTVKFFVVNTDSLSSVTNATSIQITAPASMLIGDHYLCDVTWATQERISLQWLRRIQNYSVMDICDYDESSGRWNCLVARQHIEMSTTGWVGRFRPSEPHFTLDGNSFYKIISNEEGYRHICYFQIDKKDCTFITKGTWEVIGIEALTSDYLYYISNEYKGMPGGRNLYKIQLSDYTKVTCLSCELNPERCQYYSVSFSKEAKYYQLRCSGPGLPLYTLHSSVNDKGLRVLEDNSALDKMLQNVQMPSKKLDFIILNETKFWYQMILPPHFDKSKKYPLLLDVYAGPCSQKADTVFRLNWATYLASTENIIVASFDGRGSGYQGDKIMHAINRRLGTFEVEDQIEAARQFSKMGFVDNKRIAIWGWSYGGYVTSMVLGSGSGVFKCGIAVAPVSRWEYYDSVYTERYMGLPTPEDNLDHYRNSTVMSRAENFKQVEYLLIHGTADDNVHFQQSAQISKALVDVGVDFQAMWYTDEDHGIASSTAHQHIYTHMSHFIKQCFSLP
Description: Inhibition of human DPP4 expressed in baculovirus system

SMILES	pIC50
N[C@H](C(=O)N1CCc2ccccc2C1)C1CCCCC1	3.64
N#C[C@@H]1CCCN1C(=O)CN1CCc2ccccc2C1	3.41
